The results in this text go back to patent US10683352B1, “Methods for treating cancer using GRM8 inhibitors” (Flagship Pioneering Innovations V, Inc., priority 2018, dated 2020).

Each structure is given as a SMILES string.

In this test the test system is M2-like macrophages. Nature of the test: IL-8 secretion by monocyte-derived macrophages treated with mGluR8 agonist (LEGENDplex bead-based immunoassay). Format: cell-based, human. Particulars: supernatant; for Fold change of IL-8 (Normalized to M2-like Macs + LPS with no compound treatment): human monocyte-derived macrophages, LEGENDplex. The method, then: CD14+ monocytes were isolated from human PBMCs using negative magnetic bead selection (Stemcell Technologies) on day 0. Cells were cultured with M-CSF to differentiate monocytes to macrophages. On day 6, cells were treated with L-AP4 (selective group III metabotropic glutamate receptor agonist) (Sigma-Aldrich), at concentrations 1 μM and 10 μM overnight. Supernatant was collected and LEGENDplex™ bead-based immunoassays (Biolegend) were performed to detect for changes in cytokines secreted.
Secretion of the inflammatory cytokine, IL-8, was decreased with the addition of the mGluR8 agonist in M2-like macrophages, consistent across multiple donors, as shown in Table 17 below.

As to `NC(CCP(=O)(O)O)C(=O)O` [L-AP4], the “Fold change of IL-8 (Normalized to M2-like Macs + LPS with no compound treatment)” value is listed as 0.646 (M2-like Macs + L-AP4 1 μM overnight) and 0.866 (M2-like Macs + L-AP4 10 μM overnight). Besides, the “Secretion of the inflammatory cytokine IL-8” value (macrophages differentiated with M-CSF from CD14+ monocytes of human PBMCs, L-AP4 at 1 μM and 10 μM overnight, multiple donors) is recorded as “decreased”.
